Target: Sphingosine 1-phosphate receptor 1 (Homo sapiens, UniProt P21453)
Experiment: S1P1 agonism potentiation – cell-based, potentiator mode, 60K MLSMR set, dose response (AID 466)
Settings: not given

Sequence of Sphingosine 1-phosphate receptor 1 (P21453 whole entry): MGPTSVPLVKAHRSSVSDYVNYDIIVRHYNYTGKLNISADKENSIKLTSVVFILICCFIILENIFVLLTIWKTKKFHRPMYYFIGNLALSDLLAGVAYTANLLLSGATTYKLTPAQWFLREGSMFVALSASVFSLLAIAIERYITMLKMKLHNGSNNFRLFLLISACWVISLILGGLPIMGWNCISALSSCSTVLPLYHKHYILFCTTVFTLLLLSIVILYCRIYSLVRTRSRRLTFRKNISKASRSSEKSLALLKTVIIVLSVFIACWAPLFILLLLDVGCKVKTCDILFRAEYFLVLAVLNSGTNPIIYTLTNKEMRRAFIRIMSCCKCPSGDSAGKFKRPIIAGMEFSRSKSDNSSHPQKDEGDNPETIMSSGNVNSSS

EC50	SMILES
9.69 µM	Cc1csc(NC(=O)c2nc(-c3ccccc3)n(-c3ccccc3)n2)n1 [MLS000058347]
6.36 µM	CCCC(=O)Nc1ccc(-c2nc3cc(C)ccc3o2)cc1 [MLS000061826]
0.935 µM	O=C(Nc1ccc(N2CCOCC2)c(Cl)c1)c1cccc(F)c1 [MLS000066209]
2.81 µM	Cc1ccc2oc(-c3ccc(NC(=O)c4cccnc4)cc3)nc2c1 [MLS000068975]
1.82 µM	CCN(C(=O)c1ccc(C(C)(C)C)cc1)c1nnc(Cn2nnc3ccccc32)s1 [MLS000072751]
> 95 µM	Cc1ccc2c(c1)N(CC(=O)Nc1ccc3c(c1)OCCO3)C(=O)CO2 [MLS000074457]
2.96 µM	CCCN(C(=O)c1cccs1)c1nnc(-c2ccncc2)s1 [MLS000074637]
5.24 µM	Cc1ccnc(SCC(=O)Nc2sc3c(c2C#N)CCCC3)n1 [MLS000077260]
3.95 µM	c1ccc(CN2CCN(c3ncnc4c3[nH]c3ccccc34)CC2)cc1 [MLS000078384]
6.28 µM	Fc1ccc2[nH]c3c(N4CCSCC4)ncnc3c2c1 [MLS000078401]
5.87 µM	NC(=Nc1nc2c(c(=O)[nH]1)CCCC2)Nc1ccccc1 [MLS000078734]
> 10 µM	COc1ccc(OC)c(-c2cc(C(=O)Nc3c(C)nn(Cc4ccc(Cl)cc4)c3C)no2)c1 [MLS000087191]
4.44 µM	CCc1ccc(NC(=O)c2cc(-c3ccco3)on2)cc1 [MLS000087211]
3.67 µM	CCc1c(C)sc(NC(=O)c2cc(-c3ccco3)on2)c1C#N [MLS000087225]
5.28 µM	COc1ccc(NC(=O)c2cc(-c3cccs3)on2)cc1OC [MLS000087261]
2.83 µM	COc1ccc2c(c1)CCc1c(C(=O)Nc3ccc(OC)c(OC)c3)noc1-2 [MLS000087452]
10.8 µM	CCOc1ccc(C(C)=O)cc1-n1c(O)c2c(c1O)C1C=CC2O1 [MLS000087730]
2.06 µM	Cn1c(SCC(=O)Nc2ccc(N3CCOCC3)c(Cl)c2)nnc1-c1ccccc1 [MLS000089171]
5 µM	O=S(=O)(NCc1cn2ccsc2n1)c1ccc(Oc2ccccc2)cc1 [MLS000094195]
8.63 µM	CCCC(=O)N1CCN(c2ccc(NC(=O)c3cc4ccccc4o3)cc2Cl)CC1 [MLS000096729]
4.08 µM	CCCc1ccc(OCc2nc(-c3ccc(NC(=O)c4ccco4)cc3)no2)cc1 [MLS000097352]
> 10 µM	O=C(Nc1nc(-c2ccc(Cl)s2)cs1)c1ccncc1 [MLS000098514]
6.51 µM	O=C(Nc1ccc(S(=O)(=O)NCc2ccco2)cc1)c1ccc2ccccc2n1 [MLS000098663]
> 95 µM	Cc1cccc(-n2ncc3c(N(C)C4CCCCC4)ncnc32)c1 [MLS000100814]
> 30 µM	O=C(c1ccc(Cl)s1)N1CCN(c2nc3ccccc3s2)CC1 [MLS000100900]
4.01 µM	Cc1nc2ccc3nc(NC(=O)C4COc5ccccc5O4)sc3c2s1 (configuration not stated) [MLS000100909]
> 95 µM	CCc1nnc(NC(=O)C2CCCCC2)s1 [MLS000104554]

Same assay, conditions: inactive by the depositor's call

EC50	SMILES
17.9 µM	COc1cccc(-c2csc(N3CCN(CC(=O)Nc4ccc5c(c4)OCO5)CC3)n2)c1 [MLS000070935]
12 µM	O=C(Nc1nc(-c2ccc3c(c2)OCO3)cs1)c1ccncc1 [MLS000073104]
15.5 µM	O=C(c1ccco1)N1CCN(c2ncnc3c2[nH]c2ccc(Br)cc23)CC1 [MLS000078404]
13.7 µM	COc1ccc(-c2cc(C(=O)NC3CCCC3)no2)cc1OC [MLS000087117]
14.1 µM	Cc1nn(Cc2ccc(Cl)cc2)c(C)c1NC(=O)c1cc(-c2ccco2)on1 [MLS000087233]
88.9 µM	COc1ccc2c(c1)CCc1c(C(=O)NC3CCCCC3)noc1-2 [MLS000087437]
15.5 µM	O=C(Nc1nc(-c2nc3ccccc3s2)cs1)c1ccc(S(=O)(=O)N2CCOCC2)cc1 [MLS000087900]
10.8 µM	CCCC(=O)Nc1ccc(-c2nc3cc(C)c(C)cc3o2)cc1 [MLS000089940]
58 µM	CCC(=O)Nc1ccc2c(c1)C(=O)N(C1CCCCC1)C2=O [MLS000099936]

SMILES	EC50
CCN(CC)C(=O)Oc1ccc2c(=O)c(-c3ccc(OC)cc3)coc2c1 [MLS000083046]	10.9 µM
